According to the supplement of paper PMC10307832:

Assays:
Experiment in all cases: relative viability (nuclei count vs DMSO), 5 days (fraction); higher = more cells survive
[1] = compound: Cc1cnc(Nc2ccc(OCCN3CCCC3)cc2)nc1Nc1cccc(S(=O)(=O)NC(C)(C)C)c1 [Fedratinib] + Nc1nc2[nH]cc(CCc3ccc(C(=O)N[C@@H](CCC(=O)O)C(=O)O)cc3)c2c(=O)[nH]1 [Pemetrexed] (partner 0.2 µM)
Summary of the method: (§1)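 A single step with final 0.05% Triton X-100, 1% formaldehyde and 1 ug/ml Hoechst fixed the cells and stained nuclei 5 days after treatment. Lung cancer cell lines in 1536-well plates had been treated by pin tool the day after seeding with one drug alone or a fixed anchor-drug dose plus five library-drug doses (not always all listed) in √10 steps, and nuclei were counted on 4× images. Relative viability is the ratio of nuclei in treated wells to nuclei in vehicle wells, taken as the median of duplicate plates.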

[2] = compound: Cc1cnc(Nc2ccc(OCCN3CCCC3)cc2)nc1Nc1cccc(S(=O)(=O)NC(C)(C)C)c1 [Fedratinib] + CS(=O)(=O)N1CCN(Cc2cc3nc(-c4cccc5[nH]ncc45)nc(N4CCOCC4)c3s2)CC1 [Pictilisib] (partner 1 µM)
Summary of the method: as §1

[3] = compound: COC1=CC=C(C=C1)COC2=C(C=C(C=C2)CC3=CN=C(N=C3N)N)OC [GW-2580] + Nc1nc2[nH]cc(CCc3ccc(C(=O)N[C@@H](CCC(=O)O)C(=O)O)cc3)c2c(=O)[nH]1 [Pemetrexed] (partner 0.2 µM)
Summary of the method: as §1

[4] = compound: Cc1cnc(Nc2ccc(OCCN3CCCC3)cc2)nc1Nc1cccc(S(=O)(=O)NC(C)(C)C)c1 [Fedratinib] + COc1cc2c(Oc3ccc(NC(=O)C4(C(=O)Nc5ccc(F)cc5)CC4)cc3F)ccnc2cc1OCCCN1CCOCC1 [Foretinib] (partner 0.25 µM)
Summary of the method: as §1

[5] = compound: Cc1cnc(Nc2ccc(OCCN3CCCC3)cc2)nc1Nc1cccc(S(=O)(=O)NC(C)(C)C)c1 [Fedratinib] + CC(=O)Nc1cccc(-n2c(=O)n(C3CC3)c(=O)c3c(Nc4ccc(I)cc4F)n(C)c(=O)c(C)c32)c1 [Trametinib] (partner 0.02 µM)
Summary of the method: as §1

[6] = compound: COC1=CC=C(C=C1)COC2=C(C=C(C=C2)CC3=CN=C(N=C3N)N)OC [GW-2580] + C[C@@H](Oc1cc(-c2cnn(C3CCNCC3)c2)cnc1N)c1c(Cl)ccc(F)c1Cl [Crizotinib] (partner 1 µM)
Summary of the method: as §1

Work on NCI-H1437 yielded a relative viability ([1]; first compound 0.1 µM) of 0.244, a relative viability ([1]; first compound 0.3162 µM) of 0.309 and a relative viability ([1]; first compound 1 µM) of 0.313. For the same cell line, the relative viability ([2]; first compound 0.1 µM) was 0.339, the relative viability ([2]; first compound 0.3162 µM) was 0.528 and the relative viability ([2]; first compound 1 µM) was 0.119. For the same cell line, the relative viability ([3]; first compound 0.08 µM) was 0.297, the relative viability ([3]; first compound 0.8 µM) was 0.307 and the relative viability ([3]; first compound 2.53 µM) was 0.299. It also gave a relative viability ([3]; first compound 8 µM) of 0.273, a relative viability ([4]; first compound 0.1 µM) of 1.25 and a relative viability ([4]; first compound 0.3162 µM) of 1.25. For the same cell line, the relative viability ([4]; first compound 1 µM) was 1.33, the relative viability ([5]; first compound 0.1 µM) was 0.492 and the relative viability ([5]; first compound 0.3162 µM) was 0.561. The relative viability ([5]; first compound 1 µM) was 0.564, the relative viability ([6]; first compound 0.08 µM) was 1.01 and the relative viability ([6]; first compound 0.8 µM) was 1.01. It also gave a relative viability ([6]; first compound 2.53 µM) of 0.828 and a relative viability ([6]; first compound 8 µM) of 0.77.
For ChaGo-K-1, the relative viability ([1]; first compound 0.1 µM) was 0.273, the relative viability ([1]; first compound 0.3162 µM) was 0.254 and the relative viability ([1]; first compound 1 µM) was 0.253. The relative viability ([2]; first compound 0.1 µM) was 0.487, the relative viability ([2]; first compound 0.3162 µM) was 1 and the relative viability ([2]; first compound 1 µM) was 0.289. The relative viability ([3]; first compound 0.08 µM) was 0.274, the relative viability ([3]; first compound 0.8 µM) was 0.256 and the relative viability ([3]; first compound 2.53 µM) was 0.267. For the same cell line, the relative viability ([3]; first compound 8 µM) was 0.262, the relative viability ([4]; first compound 0.1 µM) was 0.811 and the relative viability ([4]; first compound 0.3162 µM) was 0.923. The relative viability ([4]; first compound 1 µM) was 0.899, the relative viability ([5]; first compound 0.1 µM) was 0.765 and the relative viability ([5]; first compound 0.3162 µM) was 0.841. The relative viability ([5]; first compound 1 µM) was 0.873, the relative viability ([6]; first compound 0.08 µM) was 1.08 and the relative viability ([6]; first compound 0.8 µM) was 1.21. For the same cell line, the relative viability ([6]; first compound 2.53 µM) was 1.18 and the relative viability ([6]; first compound 8 µM) was 1.07.
Cell Line NCI-H650 has a relative viability ([1]; first compound 0.1 µM) of 0.866, a relative viability ([1]; first compound 0.3162 µM) of 0.887 and a relative viability ([1]; first compound 1 µM) of 0.835. It also gave a relative viability ([2]; first compound 0.3162 µM) of 0.701, a relative viability ([2]; first compound 1 µM) of 0.727 and a relative viability ([3]; first compound 0.08 µM) of 1.04. For the same cell line, the relative viability ([3]; first compound 0.8 µM) was 1.11, the relative viability ([3]; first compound 2.53 µM) was 0.792 and the relative viability ([3]; first compound 8 µM) was 0.855. It also gave a relative viability ([4]; first compound 0.1 µM) of 0.943, a relative viability ([4]; first compound 0.3162 µM) of 1.01 and a relative viability ([4]; first compound 1 µM) of 1.01. It also gave a relative viability ([5]; first compound 0.1 µM) of 1.04, a relative viability ([5]; first compound 0.3162 µM) of 1.04 and a relative viability ([5]; first compound 1 µM) of 0.869. For the same cell line, the relative viability ([6]; first compound 0.08 µM) was 0.834, the relative viability ([6]; first compound 0.8 µM) was 0.663 and the relative viability ([6]; first compound 2.53 µM) was 0.668. It also gave a relative viability ([6]; first compound 8 µM) of 0.594.
COR-L23 showed a relative viability ([1]; first compound 0.1 µM) of 0.177, a relative viability ([1]; first compound 0.3162 µM) of 0.218 and a relative viability ([1]; first compound 1 µM) of 0.184. The relative viability ([2]; first compound 0.1 µM) was 0.891, the relative viability ([2]; first compound 0.3162 µM) was 0.809 and the relative viability ([2]; first compound 1 µM) was 0.707. It also gave a relative viability ([3]; first compound 0.08 µM) of 0.197, a relative viability ([3]; first compound 0.8 µM) of 0.196 and a relative viability ([3]; first compound 2.53 µM) of 0.205. For the same cell line, the relative viability ([3]; first compound 8 µM) was 0.194, the relative viability ([4]; first compound 0.1 µM) was 0.912 and the relative viability ([4]; first compound 0.3162 µM) was 0.838. For the same cell line, the relative viability ([4]; first compound 1 µM) was 0.921, the relative viability ([5]; first compound 0.1 µM) was 0.576 and the relative viability ([5]; first compound 0.3162 µM) was 0.604. It also gave a relative viability ([5]; first compound 1 µM) of 0.155, a relative viability ([6]; first compound 0.08 µM) of 0.808 and a relative viability ([6]; first compound 0.8 µM) of 0.684. The relative viability ([6]; first compound 2.53 µM) was 0.549 and the relative viability ([6]; first compound 8 µM) was 0.562.
Cell Line COR-L 105 has a relative viability ([1]; first compound 0.1 µM) of 0.96, a relative viability ([1]; first compound 0.3162 µM) of 1.1 and a relative viability ([1]; first compound 1 µM) of 0.827. For the same cell line, the relative viability ([2]; first compound 0.1 µM) was 0.364, the relative viability ([2]; first compound 0.3162 µM) was 0.471 and the relative viability ([2]; first compound 1 µM) was 0.284. For the same cell line, the relative viability ([3]; first compound 0.08 µM) was 1.26, the relative viability ([3]; first compound 0.8 µM) was 1.08 and the relative viability ([3]; first compound 2.53 µM) was 1.21. For the same cell line, the relative viability ([3]; first compound 8 µM) was 0.962, the relative viability ([4]; first compound 0.1 µM) was 0.866 and the relative viability ([4]; first compound 0.3162 µM) was 1.03. The relative viability ([4]; first compound 1 µM) was 0.676, the relative viability ([5]; first compound 0.1 µM) was 0.39 and the relative viability ([5]; first compound 0.3162 µM) was 0.442. It also gave a relative viability ([5]; first compound 1 µM) of 0.422, a relative viability ([6]; first compound 0.08 µM) of 0.782 and a relative viability ([6]; first compound 0.8 µM) of 0.827. It also gave a relative viability ([6]; first compound 2.53 µM) of 0.787 and a relative viability ([6]; first compound 8 µM) of 0.677.
LK-2 was tested, and the relative viability ([1]; first compound 0.1 µM) was 0.171, the relative viability ([1]; first compound 0.3162 µM) was 0.207 and the relative viability ([1]; first compound 1 µM) was 0.233. It also gave a relative viability ([2]; first compound 0.3162 µM) of 0.563, a relative viability ([2]; first compound 1 µM) of 0.399 and a relative viability ([3]; first compound 0.08 µM) of 0.287. The relative viability ([3]; first compound 0.8 µM) was 0.283, the relative viability ([3]; first compound 2.53 µM) was 0.245 and the relative viability ([3]; first compound 8 µM) was 0.295. It also gave a relative viability ([4]; first compound 0.1 µM) of 1.1, a relative viability ([4]; first compound 0.3162 µM) of 1.14 and a relative viability ([4]; first compound 1 µM) of 1.14. It also gave a relative viability ([5]; first compound 0.1 µM) of 0.799, a relative viability ([5]; first compound 0.3162 µM) of 0.8 and a relative viability ([5]; first compound 1 µM) of 0.605. For the same cell line, the relative viability ([6]; first compound 0.08 µM) was 0.22, the relative viability ([6]; first compound 0.8 µM) was 0.247 and the relative viability ([6]; first compound 2.53 µM) was 0.218. For the same cell line, the relative viability ([6]; first compound 8 µM) was 0.208.
Work on 201T yielded a relative viability ([1]; first compound 0.1 µM) of 0.332, a relative viability ([1]; first compound 0.3162 µM) of 0.336 and a relative viability ([1]; first compound 1 µM) of 0.314. It also gave a relative viability ([2]; first compound 0.1 µM) of 0.679, a relative viability ([2]; first compound 0.3162 µM) of 0.705 and a relative viability ([2]; first compound 1 µM) of 0.601. For the same cell line, the relative viability ([3]; first compound 0.08 µM) was 0.371, the relative viability ([3]; first compound 0.8 µM) was 0.351 and the relative viability ([3]; first compound 2.53 µM) was 0.329. The relative viability ([3]; first compound 8 µM) was 0.346, the relative viability ([4]; first compound 0.1 µM) was 1.1 and the relative viability ([4]; first compound 0.3162 µM) was 1.08. For the same cell line, the relative viability ([4]; first compound 1 µM) was 0.895, the relative viability ([5]; first compound 0.1 µM) was 0.697 and the relative viability ([5]; first compound 0.3162 µM) was 0.769. It also gave a relative viability ([5]; first compound 1 µM) of 0.718, a relative viability ([6]; first compound 0.08 µM) of 1.04 and a relative viability ([6]; first compound 0.8 µM) of 1.06. For the same cell line, the relative viability ([6]; first compound 2.53 µM) was 1.07 and the relative viability ([6]; first compound 8 µM) was 0.993.
In the case of NCI-H596, the relative viability ([1]; first compound 0.1 µM) is reported as 0.511, the relative viability ([1]; first compound 0.3162 µM) is reported as 0.511 and the relative viability ([1]; first compound 1 µM) is reported as 0.426. The relative viability ([2]; first compound 0.1 µM) was 0.342, the relative viability ([2]; first compound 0.3162 µM) was 0.388 and the relative viability ([2]; first compound 1 µM) was 0.366. The relative viability ([3]; first compound 0.08 µM) was 0.44, the relative viability ([3]; first compound 0.8 µM) was 0.502 and the relative viability ([3]; first compound 2.53 µM) was 0.562. It also gave a relative viability ([3]; first compound 8 µM) of 0.512, a relative viability ([4]; first compound 0.1 µM) of 0.881 and a relative viability ([4]; first compound 0.3162 µM) of 0.78. The relative viability ([4]; first compound 1 µM) was 0.762, the relative viability ([5]; first compound 0.1 µM) was 0.739 and the relative viability ([5]; first compound 0.3162 µM) was 0.804. The relative viability ([5]; first compound 1 µM) was 0.755, the relative viability ([6]; first compound 0.08 µM) was 0.966 and the relative viability ([6]; first compound 0.8 µM) was 0.985. It also gave a relative viability ([6]; first compound 2.53 µM) of 0.912 and a relative viability ([6]; first compound 8 µM) of 1.15.
